Laboratory results from patent EP0378255B1, “2-Aminopyrimidinone derivatives” (JANSSEN PHARMACEUTICA N.V., priority 1989, dated 1990).
Read-outs that look alike come from different tables or passages of the source.

What was measured:
Tryptamine = assay: Combined Apomorphine, Tryptamine and Norepinephrine (ATN) test in rats: tryptamine part; assay type: in vivo; conditions: Rattus norvegicus
Norepinephrine = assay: Combined Apomorphine, Tryptamine and Norepinephrine (ATN) test in rats: norepinephrine part; assay type: in vivo; conditions: Rattus norvegicus; read-out: Combined ATN test in rats ED₅₀ values (NOR)
Procedure: (§1) Int. Pharmacodyn. Ther., 227, 238-253, 1977. Further the activity of the subject compounds as serotonin antagonists is evidenced by the experimental data obtained in the "Gastric Lesions induced by compound 48/80 in rats" test, described in U.S.-4,335,127. […] All tests were carried out following the procedures described in the cited references and the experimental data are shown in Table 8.

compound 48/80 [1] = assay: Gastric Lesions induced by compound 48/80 in rats (serotonin antagonism); assay type: in vivo; conditions: Rattus norvegicus, read-out: Compound 48/80 tests ED₅₀ values Gastric lesions
Procedure: as §1

compound 48/80 [2] = assay: Protection of Rats from compound 48/80 induced lethality (antihistaminic activity); assay type: in vivo; conditions: Rattus norvegicus, read-out: Compound 48/80 tests ED₅₀ values Lethality
Procedure: as §1

Apomorphine = assay: Combined Apomorphine, Tryptamine and Norepinephrine (ATN) test in rats: apomorphine part; assay type: in vivo; conditions: Rattus norvegicus; read-out: Combined ATN test in rats ED₅₀ values (APO)
Wistar rats = conditions: separated group of 8 rats, cited from earlier work
[3] = convulsions, read-out: Combined ATN test in rats ED₅₀ values (TRY) convulsions
[4] = hyperaemia, read-out: Combined ATN test in rats ED₅₀ values (TRY) hyperaemia

Compound | ED50 (Tryptamine; [3]) [mg/kg] | ED50 (Tryptamine; [4]) [mg/kg] | ED50 (Norepinephrine) [mg/kg] | ED50 (compound 48/80 [1]) [mg/kg] | ED50 (compound 48/80 [2]) [mg/kg] | ED50 (Apomorphine) [mg/kg] | effect on SWS2 (Wistar rats; 0.63 mg/kg, for 8 h, at the expense of W, SWS1 and PS) | effects on sleep-wakefulness patterns (Wistar rats; doses of 0.04 and 0.16 mg/kg)
Cc1nc2n(C)ncn2c(=O)c1CCN1CCC(c2noc3cc(F)ccc23)CC1 [Compound 89] | 0.08 | ≤ 0.0025 | 0.31 | 0.16 | 0.02 | 0.08 |  | 
Cc1nc2n(C)c(C)cn2c(=O)c1CCN1CCN(c2noc3ccccc23)CC1 [Compound 111] | 0.31 | 0.005 | 0.31 | 0.16 |  | 0.08 |  | 
CC1=NN(C)c2nc(C)c(CCN3CCN(c4noc5ccccc45)CC3)c(=O)n2C1 [Compound 112] | 0.31 | 0.005 | 0.63 | 0.04 | 0.16 | 0.08 |  | 
Cc1nc2n(C)nc(C)n2c(=O)c1CCN1CCN(c2noc3ccccc23)CC1 [Compound 113] | 0.31 | 0.005 | 1.25 | 0.08 |  | 0.08 |  | 
Cc1nc2n(C)ncn2c(=O)c1CCN1CCN(c2noc3ccccc23)CC1 [Compound 114] | 0.31 | ≤ 0.04 | 1.25 | 0.16 |  | 0.08 |  | 
Cc1nc2n(c(=O)c1CCN1CCN(c3noc4ccccc34)CC1)CCN2C [Compound 115] | 0.31 | 0.005 | 1.25 | 0.02 | 0.04 | 0.08 |  | 
Cc1nc2n(c(=O)c1CCN1CCN(c3noc4ccccc34)CC1)CCCN2C [Compound 120] | 0.08 | 0.02 | 1.25 | 0.63 | 0.01 | 0.02 |  | 
Cc1nc2n(C)ccn2c(=O)c1CCN1CCN(c2nsc3ccccc23)CC1 [Compound 124] | 0.02 | 0.00125 | 5 | 0.04 | 0.31 | 0.08 |  | 
Cc1nc2sccn2c(=O)c1CCN1CCC(=C(c2ccc(F)cc2)c2ccc(F)cc2)CC1 [ritanserin, 6-[2-[4-[bis(4-fluorophenyl)methylene]-1-piperidinyl]ethyl]-7-methyl-5H-thiazolo[3,2-a]pyrimidin-5-one] |  |  |  |  |  |  | significant increase of SWS2 | no major effects on sleep-wakefulness patterns
